# Patent US20060211671A1, “Estrogen receptors” (priority 2001, published 2006)
# Entries after “also recorded” stand apart in the source; their conditions may differ.
# How the values were obtained:
# [1] = tested on: ovariectomized (ovx) mice; assay: Effects of estrogen exposure on gonadal fat in ovariectomized WT, ERKO, BERKO and DERKO mice; type: in vivo; details: for gonadal fat mass, WT mice: ovx WT mice
# Text: Male double heterozygous (ERα^+/−β^+/−) mice were mated with female double heterozygous (ERα^+/−β^+/−) mice, resulting in ERα^+/+β^+/+ wildtype (WT); ERα^−/−β^+/+=ERKO, ERα^+/+β^−/−=BERKO and ERα^−/−β^−/−=DERKO offsprings (Vidal O et al (2000) Proc Natl Sci USA, 97, 5474). The diet, housing and genetic background was as previously described in Vidal O et al (2000) supra. In the estrogen exposure experiments all mice were ovariectomized. Ovaries were removed after a flank incision and the incisions were closed with metallic clips. Mice were left to recover for four days after ovariectomy before start of experiments. After recovery mice were injected s.c with 2.3 μg/mouse/day of 17β-estradiol benzoate (Sigma, St Louis, Mo., USA) for 5 days/week during three weeks time. Control mice received injections of vehicle oil (olive oil, Apoteksbolaget, Göteborg, Sweden).
# Ovariectomized (ovx) mice, lacking one or both of the two known ERs, were given estrogen and the effects on gonadal fat was studied. The effects of estrogen in mice with both ERα and ERβ inactivated (DERKO) were compared with the effects of estrogen in wild type (WT) mice.
# In Table 2, the left part describes the effects of estrogen on fat in ovx wild type (WT) and DERKO mice. Three months old ovx mice were treated for three weeks with 2.3 μg/mouse/day of 17β-estradiol 5 days/week or olive oil as control (=vehicle). n=7 for WT vehicle, n=7 for WT estrogen, n=7 for DERKO vehicle, n=8 for DERKO estrogen. Values are given as means±SEM and expressed as % increase over vehicle treated animal. **=p<0.01 compared with vehicle treated mice. ++=p<0.01 effect of estrogen in DERKO compared with the effect of estrogen in WT, Student t-test. The right part of Table 2 describes the calculation of estrogen receptor α/β dependent and independent effects of estrogen. The effects of estrogen in WT and DERKO mice, as described in the left part of the table, were used for the calculation of the proportion of ERα/β dependent and independent effects of estrogen. The values are given as % of the total effect seen in WT mice.
# orx male rats = details: cited from earlier work
# [2] = calculated from effects in WT and DERKO mice, % of the total effect seen in WT mice
Molecule,"ERα/β Dependent effect of estrogen on Fat Weight [1, 2] [%]","ERα/β Independent effect of estrogen on Fat Weight [1, 2] [%]","gonadal fat mass, BERKO mice ([1]; ovx BERKO mice, estrogen treatment, result in words (FIG. 6))","gonadal fat mass, DERKO mice ([1]; ovx DERKO mice, estrogen treatment, result in words (FIG. 6))","Effect of Estrogen (%) on Fat Weight, DERKO ([1]; ovx DERKO mice, three months old, 2.3 μg/mouse/day s.c. 5 days/week for three weeks, mean±SEM, % increase over vehicle treated animal)","gonadal fat mass, WT mice ([1]; estrogen treatment, result in words (FIG. 6))","gonadal fat mass, WT mice ([1]; estrogen treatment, result in words (FIG. 6), listed as estrogen)",body weight (orx male rats),food intake (orx male rats),total serum cholesterol (orx male rats)
17β-estradiol benzoate [Estrogen],93,7,reduced; also recorded: hyperresponsiveness,not,−2.0 ± 5.2++ %,reduction of gonadal fat mass,reduced,,,
Oc1ccc2c(c1)CC[C@H](c1ccccc1)[C@@H]2c1ccc(OCCN2CCCC2)cc1 [lasofoxifene],,,,,,,,decreased,decreased,decreased
